Assay results taken from ChEMBL document CHEMBL5550160, “Leveraging a rationally designed veliparib-based anilide eliciting anti-leukemic effects for the design of pH-responsive polymer nanoformulation” (Eur J Med Chem, 2024).
The source made the active and inactive calls. The calls are words filed in the database; no cut-off is given here.

Legend:
MDA-MB-231 = experiment: Antiproliferative activity against human MDA-MB-231 cells assessed as inhibition of cell growth by MTT assay; format: functional, cell-based
[1] = molecular target: T1, Histone deacetylase 8 (Homo sapiens) (UniProt Q9BY41); experiment: Inhibition of HDAC8 (unknown origin) assessed as residual activity at 1 x 10^-5M (reference value: 100%); settings: dose 1.0 10^-5M
T1 sequence (whole entry): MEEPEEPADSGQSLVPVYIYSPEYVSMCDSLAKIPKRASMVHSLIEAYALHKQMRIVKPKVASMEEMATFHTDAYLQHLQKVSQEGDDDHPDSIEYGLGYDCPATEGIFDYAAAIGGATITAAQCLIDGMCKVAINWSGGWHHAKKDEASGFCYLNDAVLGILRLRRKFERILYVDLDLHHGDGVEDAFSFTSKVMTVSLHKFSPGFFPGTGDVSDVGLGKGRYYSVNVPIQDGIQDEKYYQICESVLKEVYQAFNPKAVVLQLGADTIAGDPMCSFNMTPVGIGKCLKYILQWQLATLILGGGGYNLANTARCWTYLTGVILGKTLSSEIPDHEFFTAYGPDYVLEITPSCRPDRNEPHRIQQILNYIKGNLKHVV

Histone deacetylase 2 = Histone deacetylase 2 (Homo sapiens, UniProt Q92769); experiment: Inhibition of HDAC2 (unknown origin) assessed as residual activity at 3.70 x 10^-7M (reference value: 99.81%); settings: dose 3.7 10^-7M
Histone deacetylase 2, sequence (Q92769 whole entry, the tested form may be a part): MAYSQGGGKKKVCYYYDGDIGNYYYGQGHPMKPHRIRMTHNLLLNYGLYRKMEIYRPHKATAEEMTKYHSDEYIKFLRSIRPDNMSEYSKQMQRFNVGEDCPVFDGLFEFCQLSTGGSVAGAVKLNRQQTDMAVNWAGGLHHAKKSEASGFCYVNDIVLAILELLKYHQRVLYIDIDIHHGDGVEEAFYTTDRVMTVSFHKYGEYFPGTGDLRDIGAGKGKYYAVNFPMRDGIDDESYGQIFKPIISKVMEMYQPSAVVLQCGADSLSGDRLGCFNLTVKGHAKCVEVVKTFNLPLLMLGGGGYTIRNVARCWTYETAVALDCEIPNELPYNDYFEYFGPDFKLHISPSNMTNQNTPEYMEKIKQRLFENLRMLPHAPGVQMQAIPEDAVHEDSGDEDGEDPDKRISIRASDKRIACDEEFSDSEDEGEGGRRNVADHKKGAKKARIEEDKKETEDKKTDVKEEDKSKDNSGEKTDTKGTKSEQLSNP

Histone deacetylase 3 = Histone deacetylase 3 (Homo sapiens, UniProt O15379); experiment: Inhibition of HDAC3 (unknown origin) using p53 residues 379 to 382 [RHKK(Ac)] as fluorogenic substrate assessed as residual activity at 1.11 x 10^-6M (reference value: 103.08%); settings: dose 1.1 10^-6M
Histone deacetylase 3, sequence (O15379 whole entry, the tested form may be a part): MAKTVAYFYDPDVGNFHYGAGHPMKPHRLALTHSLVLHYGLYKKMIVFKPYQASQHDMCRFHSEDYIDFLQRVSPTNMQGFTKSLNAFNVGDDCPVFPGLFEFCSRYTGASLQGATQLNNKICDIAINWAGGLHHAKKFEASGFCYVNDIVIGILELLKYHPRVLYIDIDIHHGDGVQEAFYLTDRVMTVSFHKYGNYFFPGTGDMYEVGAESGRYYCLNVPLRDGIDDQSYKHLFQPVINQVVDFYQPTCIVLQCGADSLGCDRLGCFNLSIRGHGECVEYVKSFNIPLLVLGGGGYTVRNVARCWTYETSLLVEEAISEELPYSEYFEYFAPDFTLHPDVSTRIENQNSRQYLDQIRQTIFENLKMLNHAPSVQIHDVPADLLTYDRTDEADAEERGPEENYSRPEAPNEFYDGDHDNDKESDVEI

[2] = molecular target: Histone deacetylase 5 (Homo sapiens) (UniProt Q9UQL6); experiment: Inhibition of HDAC5 (unknown origin) assessed as residual activity at 4.12 x 10^-8M (reference value: 100%); settings: dose 4.12 10^-8M
Histone deacetylase 5 (Homo sapiens), sequence (Q9UQL6 whole entry): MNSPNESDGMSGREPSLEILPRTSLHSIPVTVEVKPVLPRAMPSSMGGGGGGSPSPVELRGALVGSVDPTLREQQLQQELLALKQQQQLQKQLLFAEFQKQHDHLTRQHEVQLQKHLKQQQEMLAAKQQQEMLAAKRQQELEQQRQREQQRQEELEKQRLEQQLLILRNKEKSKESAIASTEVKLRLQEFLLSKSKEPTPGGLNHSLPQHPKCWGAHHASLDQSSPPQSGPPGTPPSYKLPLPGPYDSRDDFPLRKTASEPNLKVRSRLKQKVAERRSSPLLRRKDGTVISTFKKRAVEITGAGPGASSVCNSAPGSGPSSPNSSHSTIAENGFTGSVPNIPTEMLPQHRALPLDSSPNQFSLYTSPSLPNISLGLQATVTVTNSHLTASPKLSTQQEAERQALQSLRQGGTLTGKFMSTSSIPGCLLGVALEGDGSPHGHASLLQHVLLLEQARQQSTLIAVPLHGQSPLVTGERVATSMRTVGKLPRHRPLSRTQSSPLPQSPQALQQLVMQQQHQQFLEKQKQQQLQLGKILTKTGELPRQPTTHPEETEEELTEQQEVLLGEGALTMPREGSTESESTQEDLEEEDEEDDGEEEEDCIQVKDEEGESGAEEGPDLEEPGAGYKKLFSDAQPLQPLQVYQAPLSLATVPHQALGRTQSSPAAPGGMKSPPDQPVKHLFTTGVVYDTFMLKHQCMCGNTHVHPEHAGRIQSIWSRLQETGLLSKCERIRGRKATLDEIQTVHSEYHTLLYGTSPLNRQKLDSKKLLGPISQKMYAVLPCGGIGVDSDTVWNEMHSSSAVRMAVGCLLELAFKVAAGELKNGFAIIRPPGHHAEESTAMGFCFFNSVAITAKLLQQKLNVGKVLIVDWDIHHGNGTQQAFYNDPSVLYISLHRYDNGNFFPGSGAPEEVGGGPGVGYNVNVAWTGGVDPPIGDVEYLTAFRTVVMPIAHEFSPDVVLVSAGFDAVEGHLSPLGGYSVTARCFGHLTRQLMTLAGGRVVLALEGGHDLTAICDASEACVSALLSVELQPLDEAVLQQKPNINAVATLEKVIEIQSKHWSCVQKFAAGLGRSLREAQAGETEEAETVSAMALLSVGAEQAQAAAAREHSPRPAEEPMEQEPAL

[3] = molecular target: Histone deacetylase 5 (Homo sapiens) (UniProt Q9UQL6); experiment: Inhibition of HDAC5 (unknown origin) assessed as residual activity at 5.08 x 10^-10M (reference value: 100%); settings: dose 5.08 10^-10M
[4] = molecular target: T1, Histone deacetylase 8 (Homo sapiens); experiment: Inhibition of HDAC8 (unknown origin) assessed as residual activity at 1.37 x 10^-8M (reference value: 100%); settings: dose 1.37 10^-8M
[5] = molecular target: T1, Histone deacetylase 8 (Homo sapiens); experiment: Inhibition of HDAC8 (unknown origin) assessed as residual activity at 5.08 x 10^-10M (reference value: 100%); settings: dose 5.08 10^-10M
[6] = molecular target: Histone deacetylase 9 (Homo sapiens) (UniProt Q9UKV0); experiment: Inhibition of HDAC9 (unknown origin) assessed as residual activity at 3.70 x 10^-7M (reference value: 97.55%); settings: dose 3.7 10^-7M
Histone deacetylase 9 (Homo sapiens), sequence (Q9UKV0 whole entry): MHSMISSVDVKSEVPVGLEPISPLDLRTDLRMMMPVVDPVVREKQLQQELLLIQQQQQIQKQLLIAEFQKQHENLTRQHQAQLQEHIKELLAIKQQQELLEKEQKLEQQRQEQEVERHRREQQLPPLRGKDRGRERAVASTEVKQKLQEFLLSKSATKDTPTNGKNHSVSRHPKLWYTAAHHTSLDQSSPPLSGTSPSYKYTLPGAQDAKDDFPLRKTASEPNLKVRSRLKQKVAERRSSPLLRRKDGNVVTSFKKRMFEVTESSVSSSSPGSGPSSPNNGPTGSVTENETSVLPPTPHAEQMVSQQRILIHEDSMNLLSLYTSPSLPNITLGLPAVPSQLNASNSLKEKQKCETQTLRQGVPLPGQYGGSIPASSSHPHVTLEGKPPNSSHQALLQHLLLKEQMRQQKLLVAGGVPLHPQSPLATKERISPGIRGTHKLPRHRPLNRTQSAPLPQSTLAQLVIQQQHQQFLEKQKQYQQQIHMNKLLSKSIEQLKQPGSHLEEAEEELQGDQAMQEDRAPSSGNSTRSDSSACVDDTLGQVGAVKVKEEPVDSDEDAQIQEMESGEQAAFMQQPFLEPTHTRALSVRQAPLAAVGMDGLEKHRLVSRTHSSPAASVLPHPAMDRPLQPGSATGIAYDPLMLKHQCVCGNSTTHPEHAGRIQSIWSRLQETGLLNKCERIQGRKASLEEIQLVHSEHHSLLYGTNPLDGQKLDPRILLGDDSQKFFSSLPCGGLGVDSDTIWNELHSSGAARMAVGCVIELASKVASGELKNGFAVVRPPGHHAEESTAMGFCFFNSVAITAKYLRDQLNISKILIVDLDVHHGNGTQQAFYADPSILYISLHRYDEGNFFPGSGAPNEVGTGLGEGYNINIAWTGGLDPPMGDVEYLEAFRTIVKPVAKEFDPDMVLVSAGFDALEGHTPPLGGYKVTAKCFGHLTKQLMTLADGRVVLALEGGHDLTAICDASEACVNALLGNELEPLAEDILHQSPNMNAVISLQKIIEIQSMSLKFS

[7] = molecular target: T2, Polyamine deacetylase HDAC10 (Homo sapiens) (UniProt Q969S8); experiment: Inhibition of HDAC10 (unknown origin) assessed as residual activity at 1.1 x 10^-6M (reference value: 101.54%); settings: dose 1.1 10^-6M
T2 sequence (whole entry): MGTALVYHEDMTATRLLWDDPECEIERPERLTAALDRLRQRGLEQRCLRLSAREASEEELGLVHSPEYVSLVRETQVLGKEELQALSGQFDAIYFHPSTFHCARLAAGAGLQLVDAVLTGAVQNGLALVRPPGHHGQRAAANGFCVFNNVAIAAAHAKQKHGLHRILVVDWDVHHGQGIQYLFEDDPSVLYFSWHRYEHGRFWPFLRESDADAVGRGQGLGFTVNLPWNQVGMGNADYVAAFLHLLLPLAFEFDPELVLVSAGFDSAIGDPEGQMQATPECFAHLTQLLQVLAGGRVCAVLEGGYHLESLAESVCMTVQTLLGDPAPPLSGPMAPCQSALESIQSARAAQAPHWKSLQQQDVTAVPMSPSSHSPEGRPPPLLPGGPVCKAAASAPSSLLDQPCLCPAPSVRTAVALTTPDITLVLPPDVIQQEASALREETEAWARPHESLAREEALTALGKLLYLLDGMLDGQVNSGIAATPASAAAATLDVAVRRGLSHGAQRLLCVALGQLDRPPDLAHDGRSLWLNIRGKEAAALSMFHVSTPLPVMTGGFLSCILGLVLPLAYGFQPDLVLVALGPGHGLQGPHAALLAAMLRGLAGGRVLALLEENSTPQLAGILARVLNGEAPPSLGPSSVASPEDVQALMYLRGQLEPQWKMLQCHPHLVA

[8] = molecular target: T2, Polyamine deacetylase HDAC10 (Homo sapiens); experiment: Inhibition of HDAC10 (unknown origin) assessed as residual activity at 3.70 x 10^-7M (reference value: 101.54%); settings: dose 3.7 10^-7M
[9] = molecular target: T2, Polyamine deacetylase HDAC10 (Homo sapiens); experiment: Inhibition of HDAC10 (unknown origin) assessed as residual activity at 1.52 x 10^-9M (reference value: 101.54%); settings: dose 1.52 10^-9M
HL-60 [10] = experiment: Downregulation of HDAC1 protein expression in human HL-60 cells at 0.5 to 1 times IC50 by Western blot analysis; format: functional, cell-based
HL-60 [11] = experiment: Induction of autophagy in human HL-60 cells assessed as conversion of LC3-I to LC3-II at 0.5 to 1 times IC50 by Western blot analysis; format: functional, cell-based
HL-60 [12] = experiment: Induction of apoptosis in human HL-60 cells assessed as DNA fragmentation at 0.5 to 1 times IC50 by DAPI staining based microscopic analysis; format: functional, cell-based

For `NC(=O)c1cccc2[nH]c(-c3ccc(NCc4ccc(C(=O)Nc5ccccc5N)cc4)cc3)nc12`, the IC50 (MDA-MB-231) was > 10 µM, the Activity [1] was 69.5% and the Activity (Histone deacetylase 2) was 33.5%. For the same compound, the Activity (Histone deacetylase 3) was 21.7%, the Activity [2] was 93.1% and the Activity [3] was 39%. The Activity [4] was 104%, the Activity [5] was 105% and the Activity [6] was 92.6%. For the same compound, the Activity [7] was 96.2%, the Activity [8] was 94.8% and the Activity [9] was 97.3%. For the same compound, the Activity (HL-60 [10]) was “Active”, the Activity (HL-60 [11]) was “Dose-Dependent Effect” and the Activity (HL-60 [12]) was “inactive”.
